In ChEMBL document CHEMBL1147423, “Synthesis and antifungal activities of phenylenedithioureas” (2004):
In brackets after ≈: the same amount, converted by molar mass.

What was measured:
Trichophyton benhamiae = test: Minimum inhibitory concentration against Trichophyton mentagrophytes; type: functional, Arthroderma benhamiae
Nannizzia nana = test: Minimum inhibitory concentration against Microsporum nanum; type: functional
Enterococcus faecalis = test: Minimum inhibitory concentration against Streptococcus faecalis ATCC 29212; type: functional
Paraphyton cookei = test: Minimum inhibitory concentration against Microsporum cookei; type: functional
Arthroderma uncinatum = test: Minimum inhibitory concentration against Trichophyton ajelloi; type: functional
Aspergillus niger = test: Minimum inhibitory concentration against Aspergillus niger; type: functional
Pseudomonas aeruginosa = test: Minimum inhibitory concentration against Pseudomonas aeruginosae ATCC 27853; type: functional
Nannizzia gypsea = test: Minimum inhibitory concentration Microsporum gypseum; type: functional
Candida albicans = test: Minimum inhibitory concentration against Candida albicans ATCC 10231; type: functional
Staphylococcus aureus = test: Minimum inhibitory concentration Staphylococcus aureus ATCC 29213; type: functional
Escherichia coli = test: Minimum inhibitory concentration against Escherichia coli ATCC 25853; type: functional
Aspergillus flavus = test: Minimum inhibitory concentration against Aspergillus flavus; type: functional

Row | Compound | MIC (Trichophyton benhamiae) [µg/mL] | MIC (Nannizzia nana) [µg/mL] | MIC (Enterococcus faecalis) [µg/mL] | MIC (Paraphyton cookei) [µg/mL] | MIC (Arthroderma uncinatum) [µg/mL] | MIC (Aspergillus niger) [µg/mL] | MIC (Pseudomonas aeruginosa) [µg/mL] | MIC (Nannizzia gypsea) [µg/mL] | MIC (Candida albicans) [µg/mL] | MIC (Staphylococcus aureus) [µg/mL] | MIC (Escherichia coli) [µg/mL] | MIC (Aspergillus flavus) [µg/mL]
1 | CCOC(=O)c1ccc(/N=C(\S)Nc2ccc(/N=C(\S)Nc3ccc(C(=O)OCC)cc3)cc2)cc1 | 512 (≈ 980 µM) | 128 (≈ 245 µM) | 512 (≈ 980 µM) | 128 (≈ 245 µM) | 256 (≈ 490 µM) | ≥ 512 | 512 (≈ 980 µM) | > 512 | > 512 | > 512 | > 512 | ≥ 512
2 | CC(C)OC(=O)c1ccc(/N=C(\S)Nc2ccc(/N=C(/S)Nc3ccc(C(=O)OC(C)C)c(O)c3)cc2)cc1O | > 512 | 128 (≈ 220 µM) | 512 (≈ 879 µM) | 128 (≈ 220 µM) | 128 (≈ 220 µM) | ≥ 512 | 512 (≈ 879 µM) | 256 (≈ 439 µM) | > 512 | > 512 | > 512 | ≥ 512
3 | COC(=O)c1ccc(/N=C(\S)Nc2ccc(/N=C(/S)Nc3ccc(C(=O)OC)c(O)c3)cc2)cc1O | 64 (≈ 122 µM) | 32 (≈ 60.8 µM) | 512 (≈ 972 µM) | 64 (≈ 122 µM) | 32 (≈ 60.8 µM) | ≥ 512 | 512 (≈ 972 µM) | 16 (≈ 30.4 µM) | > 512 | > 512 | > 512 | ≥ 512
4 | COC(=O)c1ccc(/N=C(\S)Nc2cccc(/N=C(/S)Nc3ccc(C(=O)OC)c(O)c3)c2)cc1O | 64 (≈ 122 µM) | 32 (≈ 60.8 µM) | > 512 | 32 (≈ 60.8 µM) | 128 (≈ 243 µM) | ≥ 512 | > 512 | 64 (≈ 122 µM) | 512 (≈ 972 µM) | 256 (≈ 486 µM) | 512 (≈ 972 µM) | ≥ 512
5 | CC(C)OC(=O)c1ccc(/N=C(\S)Nc2ccc(/N=C(\S)Nc3ccc(C(=O)OC(C)C)cc3)cc2)cc1 | 64 (≈ 116 µM) | 64 (≈ 116 µM) | 512 (≈ 930 µM) | 64 (≈ 116 µM) | 64 (≈ 116 µM) | ≥ 512 | 512 (≈ 930 µM) | 32 (≈ 58.1 µM) | > 512 | > 512 | > 512 | ≥ 512
6 | O=C(O)c1ccc(/N=C(\S)Nc2ccc(/N=C(/S)Nc3ccc(C(=O)O)c(O)c3)cc2)cc1O | 128 (≈ 257 µM) | 64 (≈ 128 µM) | 512 (≈ 1030 µM) | 128 (≈ 257 µM) | 128 (≈ 257 µM) | ≥ 512 | 512 (≈ 1030 µM) | 128 (≈ 257 µM) | 256 (≈ 513 µM) | > 512 | > 512 | ≥ 512
7 | COC(=O)c1ccc(/N=C(\S)Nc2ccc(/N=C(\S)Nc3ccc(C(=O)OC)cc3)cc2)cc1 | 32 (≈ 64.7 µM) | 32 (≈ 64.7 µM) | 512 (≈ 1040 µM) | 128 (≈ 259 µM) | 128 (≈ 259 µM) | ≥ 512 | 512 (≈ 1040 µM) | 256 (≈ 518 µM) | > 512 | > 512 | > 512 | ≥ 512
8 | CC(C)OC(=O)c1ccc(/N=C(\S)Nc2cccc(/N=C(/S)Nc3ccc(C(=O)OC(C)C)c(O)c3)c2)cc1O | 16 (≈ 27.5 µM) | 32 (≈ 54.9 µM) | > 512 | 32 (≈ 54.9 µM) | 32 (≈ 54.9 µM) | ≥ 512 | > 512 | 32 (≈ 54.9 µM) | > 512 | 256 (≈ 439 µM) | 512 (≈ 879 µM) | ≥ 512
9 | CCOC(=O)c1ccc(/N=C(\S)Nc2cccc(/N=C(/S)Nc3ccc(C(=O)OCC)c(O)c3)c2)cc1O | 32 (≈ 57.7 µM) | 32 (≈ 57.7 µM) | > 512 | 64 (≈ 115 µM) | 32 (≈ 57.7 µM) | ≥ 512 | > 512 | 32 (≈ 57.7 µM) | > 512 | 256 (≈ 462 µM) | 512 (≈ 923 µM) | ≥ 512
10 | O=C(O)c1ccc(/N=C(\S)Nc2cccc(/N=C(/S)Nc3ccc(C(=O)O)c(O)c3)c2)cc1O | 32 (≈ 64.2 µM) | 64 (≈ 128 µM) | > 512 | 8 (≈ 16 µM) | 32 (≈ 64.2 µM) | ≥ 512 | > 512 | 64 (≈ 128 µM) | > 512 | 256 (≈ 513 µM) | 512 (≈ 1030 µM) | ≥ 512
11 | CCOC(=O)c1ccc(/N=C(\S)Nc2cccc(/N=C(/S)Nc3ccc(C(=O)OCC)cc3)c2)cc1 | 64 (≈ 122 µM) | 256 (≈ 490 µM) | > 512 | 256 (≈ 490 µM) | 256 (≈ 490 µM) | ≥ 512 | > 512 | 64 (≈ 122 µM) | > 512 | 512 (≈ 980 µM) | 512 (≈ 980 µM) | ≥ 512
12 | O=C(O)c1ccc(/N=C(\S)Nc2ccc(/N=C(\S)Nc3ccc(C(=O)O)cc3)cc2)cc1 | 32 (≈ 68.6 µM) | 128 (≈ 274 µM) | 512 (≈ 1100 µM) | 128 (≈ 274 µM) | 128 (≈ 274 µM) | ≥ 512 | 512 (≈ 1100 µM) | 32 (≈ 68.6 µM) | 512 (≈ 1100 µM) | > 512 | > 512 | ≥ 512
13 | O=C(NNc1ccccc1)c1ccc(NC(=S)Nc2ccc(NC(=S)Nc3ccc(C(=O)NNc4ccccc4)cc3)cc2)cc1 | 16 (≈ 24.7 µM) | 8 (≈ 12.4 µM) | 512 (≈ 792 µM) | 16 (≈ 24.7 µM) | 128 (≈ 198 µM) | ≥ 512 | 512 (≈ 792 µM) | 64 (≈ 98.9 µM) | > 512 | 128 (≈ 198 µM) | 512 (≈ 792 µM) | ≥ 512
14 | COC(=O)c1ccc(/N=C(\S)Nc2cccc(/N=C(/S)Nc3ccc(C(=O)OC)cc3)c2)cc1 | 64 (≈ 129 µM) | 128 (≈ 259 µM) | > 512 | 64 (≈ 129 µM) | 64 (≈ 129 µM) | ≥ 512 | > 512 | 128 (≈ 259 µM) | > 512 | 512 (≈ 1040 µM) | 512 (≈ 1040 µM) | ≥ 512
15 | O=C(O)c1ccc(N/C(S)=N\c2ccccc2/N=C(/S)Nc2ccc(C(=O)O)cc2)cc1 | 32 (≈ 68.6 µM) | 16 (≈ 34.3 µM) | 512 (≈ 1100 µM) | 32 (≈ 68.6 µM) | 16 (≈ 34.3 µM) | ≥ 512 | 512 (≈ 1100 µM) | 32 (≈ 68.6 µM) | > 512 | > 512 | > 512 | ≥ 512
16 | O=C(O)c1ccc(N/C(S)=N\c2ccccc2/N=C(/S)Nc2ccc(C(=O)O)c(O)c2)cc1O | 8 (≈ 16 µM) | 32 (≈ 64.2 µM) | 512 (≈ 1030 µM) | 32 (≈ 64.2 µM) | 32 (≈ 64.2 µM) | ≥ 512 | 512 (≈ 1030 µM) | 16 (≈ 32.1 µM) | 512 (≈ 1030 µM) | > 512 | > 512 | ≥ 512
17 | O=C(N[C@H](CO)[C@H](O)c1ccc([N+](=O)[O-])cc1)C(Cl)Cl [CHLORAMPHENICOL] | – | – | – | – | – | ≥ 512 | 512 (≈ 1580 µM) | – | – | 128 (≈ 396 µM) | – | ≥ 512
18 | CC(=O)N1CCN(c2ccc(OC[C@H]3CO[C@](Cn4ccnc4)(c4ccc(Cl)cc4Cl)O3)cc2)CC1 [KETOCONAZOLE] | 16 (≈ 30.1 µM) | 16 (≈ 30.1 µM) | – | 8 (≈ 15.1 µM) | 16 (≈ 30.1 µM) | ≥ 512 | – | 16 (≈ 30.1 µM) | 128 (≈ 241 µM) | – | – | ≥ 512
